Assay results: patent publication US11643385B2, “Polymorphic forms of RAD1901-2HCl” (RADIUS PHARMACEUTICALS, INC., priority 2018, dated 2023)
Read-outs that look alike come from different tables or passages of the source. Marks after values point to notes of the source that are not given here.

Key:
Type in all cases: physicochemical
[1] = Storage at elevated temperature/humidity, solid form checked by XRPD; conditions: <40% RH, 8 hr
Experimental: Samples 1 and 2 were characterized by XRPD at various conditions. XRPD patterns were collected for the samples at ambient condition as the samples were provided; at variable temperature (VT-XRPD); at variable humidity (VH-XRPD); after the samples were exposed to 40° C./75% RH for 1 week and 25° C./97% RH for 1 week, respectively; and after a GVS measurement wherein the samples were exposed to 0-90% RH. Samples 1 and 2 were also characterized by ^1H NMR, TGA, DSC, KF, IC, GVS (exposed to 0-90% RH), PLM, SEM, and HPLC (Table 5). […]

[2] = Solubility assessment and polymorph screen on amorphous RAD1901-2HCl; conditions: for XRPD post 50° C./RT (form): after maturation at 50° C./RT; for Solubility observation at 10 vol.: amorphous RAD1901-2HCl, 10 vol. solvent (solvent per sample ID); for XRPD post 25° C. (form): after maturation at 25° C.
Experimental: In a scale-up preparation of amorphous RAD1901-2HCl, RAD1901-2HCl (600 mg) was dissolved in water (20 vol., 12 mL) and filtered to remove any remaining solid particles. The solution was then aliquoted into 24 HPLC vials, frozen in a dry ice/acetone bath and the solvent removed by lyophilisation. Solids produced by lyophilization were used directly in solubility assessment and polymorph screens in Example 4.
Amorphous RAD1901-2HCl prepared as described in Example 3B was used directly in solubility assessment and polymorph screens (Table 15). XRPD patterns were further obtained for amorphous RAD1901-2HCl prepared using other solvents.
In the polymorph screen of the amorphous RAD1901-2HCl prepared as described in Example 3B, an aliquot of each sample was examined for its morphology under the microscope, both after maturing at 25° C., and after maturing at 50° C./RT. […] In some instances, the sample appeared to be a mixture of various polymorphic forms, e.g. Form 2 and Form 3 (FIGS. 18B-18C), similar to the mixture of Forms 2 and 3 in Sample 2 having an equilibrium between the two solid forms, depending on the prevailing RH.

[3] = Solubility assessment of amorphous RAD1901-2HCl in water/organic solvent mixtures; conditions: for XRPD (form) after stirring: after stirring at 25° C. for 72 hours
Experimental: Samples of amorphous RAD1901-2HCl were prepared in water/organic solvent mixtures containing varying ratios of water. The organic solvents chosen were anhydrous ethanol, methanol and ethyl acetate. The percentage of water in the water/organic solvent mixtures was varied between 0 and 10% (v/v) in order to place a limit on the level of water that can be present during production processes, and to retain formation of Form 1. Above this water activity limit, the hydrated Form 3 will be obtained, as shown by GVS experiments (see FIGS. 6G and 20A). It should be noted that samples prepared in ethyl acetate, were either slurried in anhydrous ethyl acetate, or in water saturated ethyl acetate.
The water activity values for each water/organic solvent mixture are provided in Table 16, and were calculated using the reference given in Bell, Halling, Enzyme Microbiol. Technol. 1997, 20, 471, incorporated herein by reference.

## CCNCCc1ccc(CN(CC)c2cc(OC)ccc2[C@@H]2CCc3cc(O)ccc3C2)cc1.Cl.Cl [Form 3]
[1]
  Form obtained on exposure to <40% RH for 8 hr: Form 2

## CCNCCc1ccc(CN(CC)c2cc(OC)ccc2[C@@H]2CCc3cc(O)ccc3C2)cc1.Cl.Cl [Form B5.]
[2]
  XRPD post 50° C./RT (form): Form 3
  Solubility observation at 10 vol.: X (X = suspension)

## CCNCCc1ccc(CN(CC)c2cc(OC)ccc2[C@@H]2CCc3cc(O)ccc3C2)cc1.Cl.Cl [Form B6.]
[2]
  XRPD post 50° C./RT (form): Form 1^+
  Solubility observation at 10 vol.: X (X = suspension)

## CCNCCc1ccc(CN(CC)c2cc(OC)ccc2[C@@H]2CCc3cc(O)ccc3C2)cc1.Cl.Cl [Form B7.]
[2]
  XRPD post 50° C./RT (form): Form 1^+
  Solubility observation at 10 vol.: X (X = suspension)

## CCNCCc1ccc(CN(CC)c2cc(OC)ccc2[C@@H]2CCc3cc(O)ccc3C2)cc1.Cl.Cl [Form B8.]
[2]
  XRPD post 50° C./RT (form): Form 1
  Solubility observation at 10 vol.: X (X = suspension)
[2]; maturation at 50° C./RT
  Observation After maturation at 50° C.: Crystalline

## CCNCCc1ccc(CN(CC)c2cc(OC)ccc2[C@@H]2CCc3cc(O)ccc3C2)cc1.Cl.Cl [Form B10.]
[2]
  XRPD post 50° C./RT (form): Form 1
  Solubility observation at 10 vol.: X (X = suspension)
[2]; maturation at 50° C./RT
  Observation After maturation at 50° C.: Fine

## CCNCCc1ccc(CN(CC)c2cc(OC)ccc2[C@@H]2CCc3cc(O)ccc3C2)cc1.Cl.Cl [Form B11.]
[2]
  Solubility observation at 10 vol.: S (S = solution)
  Observation After maturation at 25° C.: S
[2]; maturation at 50° C./RT
  Observation After maturation at 50° C.: S

## CCNCCc1ccc(CN(CC)c2cc(OC)ccc2[C@@H]2CCc3cc(O)ccc3C2)cc1.Cl.Cl [Form B12.]
[2]
  XRPD post 25° C. (form): Form 3
  XRPD post 50° C./RT (form): Form 3
  Solubility observation at 10 vol.: S (S = solution)
[2]; maturation at 50° C./RT
  Observation After maturation at 50° C.: Lath

## CCNCCc1ccc(CN(CC)c2cc(OC)ccc2[C@@H]2CCc3cc(O)ccc3C2)cc1.Cl.Cl [Form B13.]
[2]
  XRPD post 25° C. (form): Amorphous
  XRPD post 50° C./RT (form): Poor
  Solubility observation at 10 vol.: X (X = suspension)
[2]; maturation at 50° C./RT
  Observation After maturation at 50° C.: Some

## CCNCCc1ccc(CN(CC)c2cc(OC)ccc2[C@@H]2CCc3cc(O)ccc3C2)cc1.Cl.Cl [Form B14.]
[2]
  XRPD post 50° C./RT (form): Poor
  Solubility observation at 10 vol.: X (X = suspension)

## CCNCCc1ccc(CN(CC)c2cc(OC)ccc2[C@@H]2CCc3cc(O)ccc3C2)cc1.Cl.Cl [Form B15.]
[2]
  Observation After maturation at 50° C.: Fine
  XRPD post 50° C./RT (form): Form 3

## CCNCCc1ccc(CN(CC)c2cc(OC)ccc2[C@@H]2CCc3cc(O)ccc3C2)cc1.Cl.Cl [Form B16.]
[2]
  XRPD post 50° C./RT (form): Form 3*

## CCNCCc1ccc(CN(CC)c2cc(OC)ccc2[C@@H]2CCc3cc(O)ccc3C2)cc1.Cl.Cl [Form B17.]
[2]
  Observation After maturation at 50° C.: Fine
  XRPD post 50° C./RT (form): Form 1*

## CCNCCc1ccc(CN(CC)c2cc(OC)ccc2[C@@H]2CCc3cc(O)ccc3C2)cc1.Cl.Cl [Form B19.]
[2]
  XRPD post 25° C. (form): Form 3
  Solubility observation at 10 vol.: X (X = suspension)
  Observation After maturation at 25° C.: Crystal
[2]; maturation at 50° C./RT
  Observation After maturation at 50° C.: Green

## CCNCCc1ccc(CN(CC)c2cc(OC)ccc2[C@@H]2CCc3cc(O)ccc3C2)cc1.Cl.Cl [Form B20.]
[2]
  XRPD post 50° C./RT (form): Form 1
  Solubility observation at 10 vol.: X (X = suspension)
[2]; maturation at 50° C./RT
  Observation After maturation at 50° C.: Crystalline

## CCNCCc1ccc(CN(CC)c2cc(OC)ccc2[C@@H]2CCc3cc(O)ccc3C2)cc1.Cl.Cl [Form B21.]
[2]
  XRPD post 25° C. (form): Form 1
[2]; maturation at 50° C./RT
  Observation After maturation at 50° C.: Needle

## CCNCCc1ccc(CN(CC)c2cc(OC)ccc2[C@@H]2CCc3cc(O)ccc3C2)cc1.Cl.Cl [Form B22.]
[2]
  XRPD post 25° C. (form): Form 3
  Solubility observation at 10 vol.: S (S = solution)
  Observation After maturation at 25° C.: S
[2]; maturation at 50° C./RT
  Observation After maturation at 50° C.: Green

## CCNCCc1ccc(CN(CC)c2cc(OC)ccc2[C@@H]2CCc3cc(O)ccc3C2)cc1.Cl.Cl [Form B23.]
[2]
  XRPD post 25° C. (form): Form 3
  XRPD post 50° C./RT (form): Form 3
  Solubility observation at 10 vol.: X (X = suspension)
[2]; maturation at 50° C./RT
  Observation After maturation at 50° C.: Fine

## CCNCCc1ccc(CN(CC)c2cc(OC)ccc2[C@@H]2CCc3cc(O)ccc3C2)cc1.Cl.Cl [Form B24.]
[2]
  XRPD post 25° C. (form): Form 3
  XRPD post 50° C./RT (form): Form 3
  Solubility observation at 10 vol.: X (X = suspension)
[2]; maturation at 50° C./RT
  Observation After maturation at 50° C.: Fine

## CCNCCc1ccc(CN(CC)c2cc(OC)ccc2[C@@H]2CCc3cc(O)ccc3C2)cc1.Cl.Cl [Form C1.]
[3]
  XRPD (form) after stirring: Form 3

## CCNCCc1ccc(CN(CC)c2cc(OC)ccc2[C@@H]2CCc3cc(O)ccc3C2)cc1.Cl.Cl [Form C2.]
[3]
  XRPD (form) after stirring: Form 1

## CCNCCc1ccc(CN(CC)c2cc(OC)ccc2[C@@H]2CCc3cc(O)ccc3C2)cc1.Cl.Cl [Form C3.]
[3]
  XRPD (form) after stirring: Form 1

## CCNCCc1ccc(CN(CC)c2cc(OC)ccc2[C@@H]2CCc3cc(O)ccc3C2)cc1.Cl.Cl [Form C4.]
[3]
  XRPD (form) after stirring: Form 1

## CCNCCc1ccc(CN(CC)c2cc(OC)ccc2[C@@H]2CCc3cc(O)ccc3C2)cc1.Cl.Cl [Form C5.]
[3]
  Observation After stirring at 25° C. for 72 hours: S

## CCNCCc1ccc(CN(CC)c2cc(OC)ccc2[C@@H]2CCc3cc(O)ccc3C2)cc1.Cl.Cl [Form C6.]
[3]
  Observation After stirring at 25° C. for 72 hours: Crystals
  XRPD (form) after stirring: Form 3*

## CCNCCc1ccc(CN(CC)c2cc(OC)ccc2[C@@H]2CCc3cc(O)ccc3C2)cc1.Cl.Cl [Form C7.]
[3]
  Observation After stirring at 25° C. for 72 hours: Crystals
  XRPD (form) after stirring: Form 2

## CCNCCc1ccc(CN(CC)c2cc(OC)ccc2[C@@H]2CCc3cc(O)ccc3C2)cc1.Cl.Cl [Form C8.]
[3]
  Observation After stirring at 25° C. for 72 hours: Crystals
  XRPD (form) after stirring: Form 2

## CCNCCc1ccc(CN(CC)c2cc(OC)ccc2[C@@H]2CCc3cc(O)ccc3C2)cc1.Cl.Cl [Form C9.]
[3]
  Solubility observation at 20 vol.: X (X = suspension)
  Solubility observation at 30 vol: X (X = suspension)
  XRPD (form) after stirring: Form 1*

## CCNCCc1ccc(CN(CC)c2cc(OC)ccc2[C@@H]2CCc3cc(O)ccc3C2)cc1.Cl.Cl [Form C10.]
[3]
  Solubility observation at 20 vol.: X (X = suspension)
  Solubility observation at 30 vol: X (X = suspension)
  XRPD (form) after stirring: Form 3

## CCNCCc1ccc(CN(CC)c2cc(OC)ccc2[C@@H]2CCc3cc(O)ccc3C2)cc1.Cl.Cl [amorphous RAD1901-2HCl]
[3]; anhydrous ethanol
  Form crystallized in anhydrous ethanol: Form 1
[3]; anhydrous ethyl acetate
  Form produced by slurrying in anhydrous ethyl acetate: Form 1
[3]; anhydrous methanol
  Form crystallized in anhydrous methanol: Form 2
[3]; water-saturated ethyl acetate, water activity 0.77
  Form produced by slurrying in water-saturated ethyl acetate: Form 3
[3]; water/ethanol
  Ratio of water/ethanol up to which crystals were Form 1: up to 5%
  Water activity limit above which hydrate Form 3 results instead of Form 1: 0.39
[3]; water/methanol
  Ratio of water/methanol up to which crystals were Form 2: ≤ 2%
  Water activity limit above which hydrate Form 3 results instead of Form 2: 0.08
